In one experiment the test system is HUVEC. As to the kind of experiment: Pre-established vessels disruption (capillary tubes on Matrigel). Format: cell-based. Particulars: HUVEC tubes formed 5 hours, then compounds overnight. On the procedure: To explore the effect of the compounds on pre-established vasculature, twenty thousand cells (HUVEC) were seeded and incubated over Matrigel for 5 hours to allow the capillary tubes to form. Then, compounds were added and incubated overnight. The disappearance of existing vasculature was monitored with fluorescent microscopy.

The target in the next experiment is T1, purified tubulin (Sus scrofa, UniProt P02550+P02554).
T1 construct: purchased Cytoskeleton #BK006P
T1 sequence (P02554 whole entry): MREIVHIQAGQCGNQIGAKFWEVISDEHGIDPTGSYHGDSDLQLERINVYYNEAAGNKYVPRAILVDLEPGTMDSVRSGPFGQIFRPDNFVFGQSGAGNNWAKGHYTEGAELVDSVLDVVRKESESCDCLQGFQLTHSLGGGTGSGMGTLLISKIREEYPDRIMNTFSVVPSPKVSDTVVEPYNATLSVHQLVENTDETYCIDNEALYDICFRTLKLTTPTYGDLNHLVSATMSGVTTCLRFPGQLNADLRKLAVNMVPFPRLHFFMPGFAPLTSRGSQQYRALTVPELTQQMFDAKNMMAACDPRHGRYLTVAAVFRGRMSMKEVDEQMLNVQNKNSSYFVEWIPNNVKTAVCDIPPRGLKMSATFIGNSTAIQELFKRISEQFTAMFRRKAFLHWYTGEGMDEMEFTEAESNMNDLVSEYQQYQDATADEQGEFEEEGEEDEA
T1 sequence (P02550 whole entry): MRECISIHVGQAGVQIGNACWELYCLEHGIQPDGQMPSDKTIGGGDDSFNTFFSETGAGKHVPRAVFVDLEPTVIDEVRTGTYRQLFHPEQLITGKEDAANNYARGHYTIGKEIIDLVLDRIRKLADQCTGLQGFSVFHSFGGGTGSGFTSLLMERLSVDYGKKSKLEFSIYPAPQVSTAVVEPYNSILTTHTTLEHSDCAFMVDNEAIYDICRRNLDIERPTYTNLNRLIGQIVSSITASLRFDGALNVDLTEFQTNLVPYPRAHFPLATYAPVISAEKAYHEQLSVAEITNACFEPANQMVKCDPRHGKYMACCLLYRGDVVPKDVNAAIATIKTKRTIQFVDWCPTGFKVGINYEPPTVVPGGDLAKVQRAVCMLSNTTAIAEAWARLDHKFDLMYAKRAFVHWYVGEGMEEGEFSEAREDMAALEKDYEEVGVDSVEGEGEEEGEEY
As to the kind of experiment: Tubulin polymerisation assay (CytoDYNAMIX Screen kit, absorbance at 340 nm). The following applies: for % Inhibition of tubulin polymerization at 5 μM / inhibition at 5 µM: 5 μM compound, 4 mg/ml tubulin; for IC50: tubulin polymerization; for inhibition at 5 µM: read-out: % Inhibition of tubulin polymerization at 5 μM. Format: biochemical. On the procedure:
The polymerization of purified tubulin was monitored spectrophotometrically by the change in absorbance at 340 nm using the CytoDYNAMIX Screen kit (#BK006P, Cytoskeleton) according to the instructions of the manufacturer. […] The absorbance was measured at 1 minute intervals for 60 minutes. The test compound was added to a 4 mg/ml tubulin solution containing 10% glycerol and 1 mM GTP in Buffer 1 (Buffer 1: 80 mM PIPES; 2 mM MgCl2; 0.5 mM EGTA, pH 6.9). Increased absorbance indicates increase in microtubule formation from tubulin heterodimers.

Experiment [1] has as its system Endothelial cells (HUVEC). The experiment can be described thus: Neovessels formation inhibition (capillary tube formation on Matrigel). The following applies: HUVEC on Matrigel, compounds overnight. Format: cell-based. On the procedure: The capability of compounds to inhibit the formation of capillaries was evaluated in vitro. Twenty thousand Endothelial cells (HUVEC) were placed on a Matrigel matrix and allowed to form capillary tubes in the presence or absence of the compounds overnight. The cells were stained with calcein AM, and the effect of the compounds on capillary tube formation was assessed using an inverted fluorescent microscope (Nikon). The reference compound used in this assay AVE-8063 is 3-amino-deoxycombretastatin A-4.

The next experiment relates to K562 cell line. The experiment can be described thus: MTT assay: cytotoxicity against the K562 cell line. Format: cell-based. Particulars: K562 cells, 72 h, growth inhibition. On the procedure:
Assessment of Cell Viability via MTT Assay: Cytotoxicity of compounds against the K562 cell line was assessed using the [3-(4,5-dimethylthiazol-2-yl)-2,5-diphenyl tetrazolium bromide] (MTT) assay. Fifteen thousand tumor cells were seeded into wells of flat-bottomed 96-well plates. An amount of 2 μL of a dilution series of each compound dissolved in DMSO was added to 198 μL of appropriate growth medium at three replicates per concentration and the plates were incubated in a 5% CO2 incubator at 37° C. After 72 h, the number of metabolically active cells was determined by MTT assay. Absorbance of each well was measured at 550 nm on a Tecan Sunrise reader. Dose-response curves for growth inhibition were generated as a percentage of untreated control. IC50 was determined by nonlinear regression (Prism, Graph Pad Software, Inc.).
On the technique in general: Tetrazolium dyes change colour on reduction, which living cells bring about.

Setting [2] is: read-out: Pre-established Vessels Disruption Number of Branch Junctions IC50.
Where [3] appears, read: read-out: Pre-established Vessels Disruption Total Tubule Length IC50.
Setting [4] is: read-out: Neovessels Formation Inhibition Number of Branch Junctions IC50.
[5] abbreviates: read-out: Neovessels Formation Inhibition Total Tubule Length IC50.
Where [6] appears, read: Homo sapiens, read-out: Pre-established Vessels Disruption Number of Branch Junctions IC50.
Setting [7] is: Homo sapiens, read-out: Pre-established Vessels Disruption Total Tubule Length IC50.
The mark [8] stands for this setting: Homo sapiens, read-out: Neovessels Formation Inhibition Number of Branch Junctions IC50.
Where [9] appears, read: Homo sapiens, read-out: Neovessels Formation Inhibition Total Tubule Length IC50.

Counter-ions that a name gives are not always drawn. Like-named read-outs stand apart in the source and are kept apart here.

What is called IC50 is the concentration needed to halve the response being measured. As to `COc1cc(C(=O)c2c(C)oc3c(OP(=O)([O-])O)c(OC)ccc23)cc(OC)c1OC.[Na+]` [BNC105P, reference compound], the concentration for half-maximal inhibition (IC50) was determined as 5.83 nM in the experiment on HUVEC (setting [2]); 7.37 nM with HUVEC (setting [3]); 4100 nM on purified tubulin; 0.44 nM in experiment [1] (setting [4]); 1.53 nM in experiment [1] (setting [5]); 17.3 nM in the experiment with K562 cell line. The “% Inhibition of tubulin polymerization at 5 μM” value at purified tubulin stood at 39.00%.
What is called inhibition is the change of the read-out against control, counted positive when it falls. In the case of `C=CCOc1c(OC)cc(Cc2cncc3c(O)c(OCC)ccc23)cc1OC` [Compound 32, 4-(4-(Allyloxy)-3,5-dimethoxybenzyl)-7-ethoxyisoquinolin-8-ol hydrochloride], the half-inhibitory concentration (IC50) worked out at 20 nM in the experiment with HUVEC (setting [6]); 48.8 nM in the experiment with HUVEC (setting [7]); 1500 nM against purified tubulin; 12.4 nM in experiment [1] (setting [8]); 21.9 nM in experiment [1] (setting [9]); 21.5 nM in the experiment with K562 cell line (Homo sapiens). Besides, the inhibition at 5 µM at purified tubulin is 63.4%.
With `CC[C@]1(O)C[C@@H]2CN(CCc3c([nH]c4ccccc34)[C@@](C(=O)OC)(c3cc4c(cc3OC)N(C)[C@H]3[C@@](O)(C(=O)OC)[C@H](OC(C)=O)[C@]5(CC)C=CCN6CC[C@]43[C@@H]65)C2)C1` [Vinblastine, reference compound], the IC50 in the experiment on HUVEC (setting [6]) came out at 2.09 nM; with HUVEC (setting [7]), 5.39 nM; against purified tubulin it was 1050 nM; in experiment [1] (setting [8]), 1.55 nM; in experiment [1] (setting [9]), 3.44 nM; in the experiment on K562 cell line (Homo sapiens) it was 3.66 nM. Moreover, on purified tubulin, the inhibition at 5 µM is 77.7%.
`COc1cc(C(=O)c2c(C)oc3c(O)c(OC)ccc23)cc(OC)c1OC` [BNC105, reference compound]: the IC50 in the experiment on HUVEC (setting [2]) came to 5.2 nM; in the experiment on HUVEC (setting [3]), 6.37 nM; against purified tubulin, 1780 nM; in experiment [1] (setting [4]), 1.76 nM; in experiment [1] (setting [5]), 2.49 nM; with K562 cell line it was 0.55 nM. The “% Inhibition of tubulin polymerization at 5 μM” value at purified tubulin is 64.75%.
On to `CCOc1ccc2c(C(=O)c3cc(OC)c(OCC)c(OC)c3)cncc2c1N` [Compound 58, (8-amino-7-ethoxyisoquinolin-4-yl)(4-ethoxy-3,5-dimethoxyphenyl)methanone hydrochloride], for which the IC50 with HUVEC (setting [6]) was 0.99 nM; with HUVEC (setting [7]), 1.36 nM; on purified tubulin it was 3490 nM; in experiment [1] (setting [8]) it was 0.53 nM; in experiment [1] (setting [9]) it was 0.59 nM; in the experiment with K562 cell line (Homo sapiens), 1.23 nM. The inhibition at 5 µM on purified tubulin came to 38.2%.
In the case of `COc1ccc(/C=C\c2cc(OC)c(OC)c(OC)c2)cc1NC(=O)[C@@H](N)CO` [AVE8062, reference compound], the IC50 with HUVEC (setting [6]) was 32.5 nM; with HUVEC (setting [7]), 52.9 nM; against purified tubulin, 1790 nM; in experiment [1] (setting [8]) it was 13.9 nM; in experiment [1] (setting [9]), 15.4 nM; with K562 cell line (Homo sapiens) it was 7.78 nM. The inhibition at 5 µM on purified tubulin was determined as 59.8%.
On to `CCOc1ccc2c(C(=O)c3cc(OC)c(OC)c(OC)c3)cncc2c1` [Compound 40, (7-Ethoxyisoquinolin-4-yl)(3,4,5-trimethoxyphenyl)methanone hydrochloride], for which the half-maximal inhibitory concentration (IC50) was determined as 32.8 nM in the experiment on HUVEC (setting [6]); 53.4 nM in the experiment with HUVEC (setting [7]); 1130 nM against purified tubulin; 8.2 nM in experiment [1] (setting [8]); 12.9 nM in experiment [1] (setting [9]); 19.6 nM with K562 cell line (Homo sapiens). Further, the inhibition at 5 µM on purified tubulin amounted to 58.8%.
Consider `CCOc1ccc2c(Cc3cc(OC)c(OCC(C)C)c(OC)c3)cncc2c1O` [Compound 20, 4-(4-Isobutoxy-3,5-dimethoxybenzyl)-7-ethoxyisoquinolin-8-ol hydrochloride], for which the IC50 in the experiment with HUVEC (setting [6]) was determined as 22.3 nM; in the experiment with HUVEC (setting [7]) it was 31.7 nM; against purified tubulin it was 1520 nM; in experiment [1] (setting [8]), 24.9 nM; in experiment [1] (setting [9]), 31.9 nM; in the experiment with K562 cell line (Homo sapiens) it was 20.8 nM. For the same molecule, the inhibition at 5 µM on purified tubulin came out at 56.9%.
As for `CCOc1ccc2c(C(=O)c3cc(OC)c(OC)c(OC)c3)cncc2c1NS(N)(=O)=O` [Compound 105, N-(7-Ethoxy-4-(3,4,5-trimethoxybenzoyl)isoquinolin-8-yl)sulfamide hydrochloride], the IC50 with HUVEC (setting [6]) was 9.27 nM; in the experiment with HUVEC (setting [7]), 9.3 nM; in experiment [1] (setting [8]), 5.71 nM; in experiment [1] (setting [9]), 8.06 nM; with K562 cell line (Homo sapiens) it was 4.18 nM. For the same molecule, the inhibition at 5 µM on purified tubulin is 35%.
For the molecule `CCOc1ccc2c(C(=O)c3cc(OC)c(OCC)c(OC)c3)cncc2c1O` [Compound 56, (4-Ethoxy-3,5-dimethoxyphenyl)(7-ethoxy-8-hydroxyisoquinolin-4-yl)methanone hydrochloride], the IC50 was 14.4 nM in the experiment with HUVEC (setting [6]); 16.1 nM in the experiment on HUVEC (setting [7]); 1940 nM against purified tubulin; 10.7 nM in experiment [1] (setting [8]); 12.2 nM in experiment [1] (setting [9]); 4.39 nM in the experiment with K562 cell line (Homo sapiens). In addition, the inhibition at 5 µM at purified tubulin was 65.1%.
Take `CCCOc1c(OC)cc(Cc2cncc3c(O)c(OCC)ccc23)cc1OC` [Compound 19, 4-(3,5-Dimethoxy-4-propoxybenzyl)-7-ethoxyisoquinolin-8-ol hydrochloride]: the IC50 with HUVEC (setting [6]) is 6.33 nM; in the experiment with HUVEC (setting [7]) it was 15.9 nM; against purified tubulin, 1850 nM; in experiment [1] (setting [8]), 14.4 nM; in experiment [1] (setting [9]) it was 23 nM; with K562 cell line (Homo sapiens), 21.5 nM. For the same molecule, the inhibition at 5 µM at purified tubulin is 61.9%.
On to `CCCOc1c(OC)cc(C(=O)c2cncc3c(OC(C)=O)c(OCC)ccc23)cc1OC` [Compound 65, 4-(3,5-Dimethoxy-4-propoxybenzoyl)-7-ethoxyisoquinolin-8-yl acetate], for which the IC50 in the experiment with HUVEC (setting [6]) was 3.36 nM; in the experiment with HUVEC (setting [7]), 9.92 nM; in experiment [1] (setting [8]), 2.88 nM; in experiment [1] (setting [9]) it was 4.23 nM; with K562 cell line (Homo sapiens), 3.81 nM. Further, at purified tubulin, the inhibition at 5 µM turned out to be 13%.
For the molecule `CCOc1ccc2c(Cc3cc(OC)c(OC)c(OC)c3)cncc2c1OS(N)(=O)=O` [Compound 21, 4-(3,4,5-Trimethoxybenzyl)-7-ethoxyisoquinolin-8-yl sulfamate hydrochloride], the IC50 amounted to 26.7 nM with HUVEC (setting [6]); 60.5 nM in the experiment on HUVEC (setting [7]); 1090 nM against purified tubulin; 47.3 nM in experiment [1] (setting [8]); 52.8 nM in experiment [1] (setting [9]); 36.9 nM in the experiment on K562 cell line (Homo sapiens). Also, the inhibition at 5 µM at purified tubulin is 65.8%.
For `CCCOc1c(OC)cc(Cc2cncc3c(N)c(OCC)ccc23)cc1OC` [Compound 64, 4-(3,5-Dimethoxy-4-propoxybenzyl)-7-ethoxyisoquinolin-8-amine dihydrochloride], the 50% inhibitory concentration (IC50) with HUVEC (setting [6]) stood at 7.41 nM; in the experiment with HUVEC (setting [7]), 14.7 nM; against purified tubulin, 900 nM; in experiment [1] (setting [8]), 7.02 nM; in experiment [1] (setting [9]), 9.54 nM; in the experiment on K562 cell line (Homo sapiens), 11.2 nM. The inhibition at 5 µM on purified tubulin worked out at 79.5%.
Regarding `CCOc1ccc2c(Cc3cc(OC)c(OCC)c(OC)c3)cncc2c1N` [Compound 18, 4-(4-Ethoxy-3,5-dimethoxybenzyl)-7-ethoxyisoquinolin-8-amine dihydrochloride], the IC50 worked out at 17.8 nM with HUVEC (setting [6]); 32.1 nM in the experiment with HUVEC (setting [7]); 990 nM against purified tubulin; 13 nM in experiment [1] (setting [8]); 18.7 nM in experiment [1] (setting [9]); 13.2 nM in the experiment on K562 cell line (Homo sapiens). Also, the inhibition at 5 µM at purified tubulin was determined as 61.4%.
